Experimental data reported in publication PMC10893631, “Receptor-based pharmacophore modeling, molecular docking, synthesis and biological evaluation of novel VEGFR-2, FGFR-1, and BRAF multi-kinase inhibitors” (BMC Chemistry, 2024).

Assays:
[1] = target: T1, FGFR-1 (Homo sapiens, UniProt P11362); assay: FGFR-1 kinase assay kit (BPS), Kinase-Glo Max luminescence; format: biochemical
T1 construct: purchased BPS Biosciences 40210
Experimental: (§1) 2. Biochemical kinase assay procedure
The inhibitory activity against different kinases was determined using kinase kits (VEGFR-2 cat ID: 40325), (FGFR-1 cat ID: 40210), (BRAF (WT) cat. ID: 78316); purchased from BPS Biosciences and kinase-Glo Max luminescence kinase assay kit (Promega).
(§2) The assay was carried out according to the protocol provided by the manufacturer. A stock solution of the synthesized derivatives in 100% DMSO was prepared. Subsequently, the compounds were diluted to 10% DMSO.
(§3) A master mixture was prepared according to the number of wells. For VEGFR-2 and FGFR-1 biochemical assays each well include 6 μl of 5x Kinase Buffer 1 + 1 μl of 500 μM ATP + 1 μl of PTK Substrate (Poly-Glu,Tyr 4:1) (10 mg/ml) + 17 μl of distilled water. […]
(§4) The plate was incubated at 30 °C for 45 min. Subsequently, 50 μl of Kinase-Glo Max luminescence reagent was added to each well and the plate was covered with aluminum foil and incubated at room temperature 15 min. Finally, the luminescence was recorded using multimode microplate reader. […]
(§5) The luminescence data were analyzed as follows. The difference between luminescence intensities in the absence of kinase (Lut) and in the presence of kinase (Luc) was defined as 100 % activity (Lut – Luc). Using luminescence signal (Lu) in the presence of the compound, % activity was calculated as: % activity = {(Lut - Lu)/(Lut - Luc)}×100%. […]

[2] = system: MCF-7 cells; assay: Annexin V-FITC apoptosis assay; format: cell-based; settings: MCF-7, at GI50 concentration
Experimental: As previously reported, the Annexin V-FITC apoptosis detection kit (Abcam Inc., Cambridge, UK) in conjunction with two fluorescent channels flow cytometry was used to identify the populations of apoptosis and necrosis cells. (For further details see Additional file 1: section II: practical results). […]
(§6) MCF-7: Breast Adenocarcinoma was obtained from Nawah Scientific Inc., (Mokatam, Cairo, Egypt). Cells were maintained in DMEM media supplemented with […] of streptomycin, 100 units/mL of penicillin and 10% of heat-inactivated fetal bovine serum in humidified, 5% (v/v) CO2 atmosphere at 37 °C. […]
Biosciences Inc., San Diego, CA, USA). […]
Apoptosis and necrosis cell populations are determined using Annexin V-FITC apoptosis detection kit (Abcam Inc., Cambridge Science Park, Cambridge, UK) coupled with 2 fluorescent channels flowcytometry. After treatment with test compounds for 48h, cells (105 […]
trypsinization and washed twice with ice-cold PBS (pH 7.4). Then, cells are incubated in dark with 0.5 ml of Annexin V-FITC/PI solution for 30 min in dark at room temperature according to manufacturer protocol. After staining, cells are injected via ACEA

[3] = system: MCF-7 cells; assay: Cell cycle analysis by PI flow cytometry; format: cell-based; settings: MCF-7, at GI50 concentration
Experimental: After the cells were handled as previously described, the distribution of the cells at each stage of the cell cycle was analysed. (For further details see Additional file 1: section II: practical results).
6. Analysis of Cell Cycle Distribution
as §6
cells) are collected by trypsinization and washed twice with ice-cold PBS (pH 7.4). Cells are re-suspended in two milliliters of 60% ice-cold ethanol and incubated at 4 °C for 1 h for fixation. Fixed cells are washed twice again with PBS (pH 7.4) and re-suspended in 1 mL of PBS containing 50 µg/mL RNAase A and 10 µg/mL propidium iodide (PI). After 20 min of incubation in dark at 37 C, cells are analyzed for DNA contents using flow cytometry analysis using FL2 (λex/em 535/617 nm) signal detector (ACEA Novocyte™ flowcytometer, ACEA Biosciences Inc., San Diego, CA, USA). For each sample, 12,000 events are acquired.
Cell cycle distribution is calculated using ACEA NovoExpress™ software (ACEA Biosciences Inc., San Diego, CA, USA).
*G0/G1-phase: This phase denotes the non-proliferating cells. Compounds with antiproliferative effect (regardless of their cytotoxicity) are expected to increase this cell […]
*S-phase: This phase denotes proliferating cells and particularly the cells who are undergoing DNA synthesis step of replication. Some compounds might induce S-phase […]
*G2/M-phase: This phase indicates the final phase of cell replication (mitosis). […]

[4] = target: T2, BRAF (WT) (Homo sapiens, UniProt P15056); assay: BRAF kinase assay kit (BPS), Kinase-Glo Max luminescence; format: biochemical
T2 construct: purchased BPS Biosciences 78316
Experimental: as §1
The inhibitory activity against different kinases was determined using kinase kits […]
from BPS Biosciences and kinase-Glo Max luminescence kinase assay kit (Promega).
as §2, §3, §4, §5

T1 sequence (P11362 22-822): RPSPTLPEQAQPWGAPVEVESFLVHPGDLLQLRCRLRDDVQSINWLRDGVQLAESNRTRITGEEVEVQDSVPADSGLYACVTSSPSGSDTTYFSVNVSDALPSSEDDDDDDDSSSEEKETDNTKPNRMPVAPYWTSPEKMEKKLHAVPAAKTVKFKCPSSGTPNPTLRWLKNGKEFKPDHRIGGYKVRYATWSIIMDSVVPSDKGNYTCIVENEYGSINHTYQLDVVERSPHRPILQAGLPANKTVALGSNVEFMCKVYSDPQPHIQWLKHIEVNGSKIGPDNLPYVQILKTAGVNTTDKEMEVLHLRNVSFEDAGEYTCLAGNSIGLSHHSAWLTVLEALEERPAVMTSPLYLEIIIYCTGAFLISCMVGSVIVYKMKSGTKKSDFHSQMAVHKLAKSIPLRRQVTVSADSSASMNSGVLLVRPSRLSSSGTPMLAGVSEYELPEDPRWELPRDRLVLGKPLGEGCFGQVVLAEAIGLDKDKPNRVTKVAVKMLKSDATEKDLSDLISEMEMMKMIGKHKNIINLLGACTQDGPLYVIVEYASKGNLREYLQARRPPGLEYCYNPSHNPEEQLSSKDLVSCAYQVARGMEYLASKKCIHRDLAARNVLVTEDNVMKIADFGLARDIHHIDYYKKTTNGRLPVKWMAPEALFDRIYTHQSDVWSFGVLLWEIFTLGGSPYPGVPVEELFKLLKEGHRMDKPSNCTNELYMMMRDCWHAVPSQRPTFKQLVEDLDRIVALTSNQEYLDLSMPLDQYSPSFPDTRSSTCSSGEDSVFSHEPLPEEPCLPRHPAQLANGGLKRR
T2 sequence (P15056 whole entry): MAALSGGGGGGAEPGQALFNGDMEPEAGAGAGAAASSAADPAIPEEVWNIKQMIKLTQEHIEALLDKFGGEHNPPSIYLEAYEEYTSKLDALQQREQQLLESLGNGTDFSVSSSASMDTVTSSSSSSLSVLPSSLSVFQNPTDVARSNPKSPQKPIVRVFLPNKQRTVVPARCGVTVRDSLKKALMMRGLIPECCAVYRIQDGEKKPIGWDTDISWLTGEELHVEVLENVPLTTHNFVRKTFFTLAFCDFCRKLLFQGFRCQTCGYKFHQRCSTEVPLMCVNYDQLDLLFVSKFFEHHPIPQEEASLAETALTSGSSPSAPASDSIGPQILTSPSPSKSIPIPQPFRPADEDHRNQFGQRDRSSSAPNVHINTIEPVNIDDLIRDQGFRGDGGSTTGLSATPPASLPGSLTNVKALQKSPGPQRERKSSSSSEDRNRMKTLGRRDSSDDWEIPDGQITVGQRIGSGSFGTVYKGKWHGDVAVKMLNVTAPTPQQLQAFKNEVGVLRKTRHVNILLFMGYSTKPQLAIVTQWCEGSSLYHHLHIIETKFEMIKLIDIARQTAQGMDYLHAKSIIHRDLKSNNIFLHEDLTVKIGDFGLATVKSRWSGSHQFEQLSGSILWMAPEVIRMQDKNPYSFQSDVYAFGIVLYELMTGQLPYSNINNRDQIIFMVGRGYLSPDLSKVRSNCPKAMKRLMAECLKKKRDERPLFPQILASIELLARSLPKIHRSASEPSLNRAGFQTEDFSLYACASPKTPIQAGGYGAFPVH

`COc1cc(C=NNC(=O)c2ccc3[nH]c(-c4ccc(Cl)cc4)nc3c2)cc(OC)c1OC` [8u, 2-(4-Chlorophenyl)-N'-(3,4,5-trimethoxybenzylidene)-1H-benzo[d]imidazole-5-carbohydrazide] was tested, and the IC50 [1] was 3740 ± 340 nM, the apoptosis induction [2] was “induces cell apoptosis in MCF-7 cell line” and the “% necrotic cells (Q2-1)” value ([2]; 48h) was 1.09%. The “% viable cells (Q2-3)” value ([2]; 48h) was 92.92%, the “% of cells in early apoptosis (Q2-4)” value ([2]; 48h, control 0.25%) was 1.46% and the “% of cells in late apoptosis (Q2-2)” value ([2]; 48h, control 2.36%) was 4.54%. The cell cycle arrest [3] was “arrests the MCF-7 cell line at the G2/M phase”, the “%Sub-G1” value ([3]; 48h, control 2.64) was 4.40% and the “%G2/M” value ([3]; 48h, control 20.60) was 25.57%. The “%S” value ([3]; 48h, control 23.10) was 29.11%, the “%G0/G1” value ([3]; 48h, control 56.30) was 45.32% and the IC50 [4] was 250 ± 30 nM.
